Legend:
[1] = Synergistic antimicrobial activity against Salmonella enterica subsp. enterica serovar Pullorum 7913 assessed as fractional inhibitory concentration index in presence of citronellal by checkerboard broth microdilution assay; format: functional
[2] = test system: Enterococcus faecalis; assay: Synergistic antimicrobial activity against Enterococcus faecalis 29212 assessed as fractional inhibitory concentration index in presence of carvacrol by checkerboard broth microdilution assay; format: functional
[3] = test system: Staphylococcus aureus; assay: Antimicrobial activity against Staphylococcus aureus ATCC 25923 assessed as reduction in microbial growth by CLSI based broth microdilution method; format: functional
[4] = test system: Pseudomonas aeruginosa; assay: Synergistic antimicrobial activity against Pseudomonas aeruginosa 27853 assessed as fractional inhibitory concentration index in presence of citronellal by checkerboard broth microdilution assay; format: functional
[5] = test system: Staphylococcus aureus; assay: Synergistic antimicrobial activity against Staphylococcus aureus 25923 assessed as fractional inhibitory concentration index in presence of perillaldehyde by checkerboard broth microdilution assay; format: functional
[6] = test system: Salmonella typhimurium; assay: Antimicrobial activity against Salmonella typhimurium ATCC 14028 assessed as cuminaldehyde MIC by CLSI based broth microdilution method; format: functional, Salmonella enterica subsp. enterica serovar Typhimurium; conditions: Salmonella enterica
[7] = test system: Staphylococcus aureus; assay: Synergistic antimicrobial activity against Staphylococcus aureus 29213 assessed as fractional inhibitory concentration index in presence of perillaldehyde by checkerboard broth microdilution assay; format: functional
[8] = Synergistic antimicrobial activity against Salmonella enterica subsp. enterica serovar Pullorum ATCC 7913 assessed as fractional inhibitory concentration by checkerboard broth microdilution assay; format: functional
[9] = test system: Escherichia coli; assay: Synergistic antimicrobial activity against Escherichia coli 25922 assessed as fractional inhibitory concentration index in presence of carvacrol by checkerboard broth microdilution assay; format: functional
[10] = test system: Staphylococcus aureus; assay: Synergistic antimicrobial activity against Staphylococcus aureus 43300 assessed as fractional inhibitory concentration index in presence of citral by checkerboard broth microdilution assay; format: functional
[11] = test system: Salmonella typhimurium; assay: Antimicrobial activity against Salmonella typhimurium ATCC 7731 assessed as reduction in microbial growth by CLSI based broth microdilution method; format: functional, Salmonella enterica subsp. enterica serovar Typhimurium; conditions: Salmonella enterica
[12] = test system: Escherichia coli; assay: Antimicrobial activity against Escherichia coli K99 assessed as reduction in microbial growth by CLSI based broth microdilution method; format: functional
[13] = test system: Escherichia coli; assay: Synergistic antimicrobial activity against Escherichia coli K99 assessed as fractional inhibitory concentration index in presence of citronellal by checkerboard broth microdilution assay; format: functional
[14] = test system: Escherichia coli; assay: Synergistic antimicrobial activity against Escherichia coli K99 assessed as fractional inhibitory concentration index in presence of carvacrol by checkerboard broth microdilution assay; format: functional
[15] = test system: Escherichia coli; assay: Antimicrobial activity against Escherichia coli UB 1005 assessed as reduction in microbial growth by CLSI based broth microdilution method; format: functional
[16] = test system: Escherichia coli; assay: Antimicrobial activity against Escherichia coli 078 assessed as cuminaldehyde MIC by CLSI based broth microdilution method; format: functional; conditions: 78
[17] = test system: Staphylococcus aureus; assay: Synergistic antimicrobial activity against Staphylococcus aureus 43300 assessed as fractional inhibitory concentration index in presence of thymol by checkerboard broth microdilution assay; format: functional
[18] = test system: Escherichia coli; assay: Synergistic antimicrobial activity against Escherichia coli K88 assessed as fractional inhibitory concentration index in presence of carvacrol by checkerboard broth microdilution assay; format: functional
[19] = test system: Pseudomonas aeruginosa; assay: Synergistic antimicrobial activity against Pseudomonas aeruginosa 27853 assessed as fractional inhibitory concentration index in presence of thymol by checkerboard broth microdilution assay; format: functional
[20] = Antimicrobial activity against Salmonella enterica subsp. enterica serovar Pullorum ATCC 7913 assessed as reduction in microbial growth in presence of cuminaldehyde by CLSI based broth microdilution method; format: functional
[21] = test system: Pseudomonas aeruginosa; assay: Synergistic antimicrobial activity against Pseudomonas aeruginosa 27853 assessed as fractional inhibitory concentration index in presence of perillaldehyde by checkerboard broth microdilution assay; format: functional
[22] = test system: Pseudomonas aeruginosa; assay: Synergistic antimicrobial activity against Pseudomonas aeruginosa ATCC 27853 assessed as fractional inhibitory concentration by checkerboard broth microdilution assay; format: functional
[23] = test system: Staphylococcus aureus; assay: Synergistic antimicrobial activity against Staphylococcus aureus 29213 assessed as fractional inhibitory concentration index in presence of carvacrol by checkerboard broth microdilution assay; format: functional
[24] = test system: Enterococcus faecalis; assay: Synergistic antimicrobial activity against Enterococcus faecalis 29212 assessed as fractional inhibitory concentration index in presence of perillaldehyde by checkerboard broth microdilution assay; format: functional
[25] = test system: Escherichia coli; assay: Synergistic antimicrobial activity against Escherichia coli 078 assessed as fractional inhibitory concentration by checkerboard broth microdilution assay; format: functional
[26] = test system: Salmonella typhimurium; assay: Antimicrobial activity against Salmonella typhimurium ATCC 14028 assessed as reduction in microbial growth in presence of cuminaldehyde by CLSI based broth microdilution method; format: functional, Salmonella enterica subsp. enterica serovar Typhimurium; conditions: Salmonella enterica
[27] = test system: Salmonella typhimurium; assay: Synergistic antimicrobial activity against Salmonella typhimurium 7731 assessed as fractional inhibitory concentration index in presence of thymol by checkerboard broth microdilution assay; format: functional, Salmonella enterica subsp. enterica serovar Typhimurium
[28] = test system: Staphylococcus epidermidis; assay: Synergistic antimicrobial activity against Staphylococcus epidermidis ATCC 12228 assessed as fractional inhibitory concentration by checkerboard broth microdilution assay; format: functional
[29] = test system: Staphylococcus epidermidis; assay: Synergistic antimicrobial activity against Staphylococcus epidermidis 12228 assessed as fractional inhibitory concentration index in presence of citral by checkerboard broth microdilution assay; format: functional
[30] = test system: Escherichia coli; assay: Antimicrobial activity against Escherichia coli K88 assessed as reduction in microbial growth by CLSI based broth microdilution method; format: functional
[31] = test system: Staphylococcus aureus; assay: Antimicrobial activity against Staphylococcus aureus ATCC 25923 assessed as cuminaldehyde MIC by CLSI based broth microdilution method; format: functional
[32] = test system: Pseudomonas aeruginosa; assay: Synergistic antimicrobial activity against Pseudomonas aeruginosa 27853 assessed as fractional inhibitory concentration index in presence of carvacrol by checkerboard broth microdilution assay; format: functional
[33] = test system: Escherichia coli; assay: Synergistic antimicrobial activity against Escherichia coli K88 assessed as fractional inhibitory concentration index in presence of thymol by checkerboard broth microdilution assay; format: functional
[34] = test system: Staphylococcus aureus; assay: Synergistic antimicrobial activity against Staphylococcus aureus 25923 assessed as fractional inhibitory concentration index in presence of thymol by checkerboard broth microdilution assay; format: functional
[35] = test system: Salmonella typhimurium; assay: Synergistic antimicrobial activity against Salmonella typhimurium 14028 assessed as fractional inhibitory concentration index in presence of cuminaldehyde by checkerboard broth microdilution assay; format: functional, Salmonella enterica subsp. enterica serovar Typhimurium
[36] = test system: Salmonella typhimurium; assay: Synergistic antimicrobial activity against Salmonella typhimurium 7731 assessed as fractional inhibitory concentration index in presence of citral by checkerboard broth microdilution assay; format: functional, Salmonella enterica subsp. enterica serovar Typhimurium
[37] = test system: Staphylococcus aureus; assay: Synergistic antimicrobial activity against Staphylococcus aureus 43300 assessed as fractional inhibitory concentration index in presence of cuminaldehyde by checkerboard broth microdilution assay; format: functional
[38] = test system: Escherichia coli; assay: Synergistic antimicrobial activity against Escherichia coli UB1005 assessed as fractional inhibitory concentration index in presence of citronellal by checkerboard broth microdilution assay; format: functional
[39] = test system: Salmonella typhimurium; assay: Synergistic antimicrobial activity against Salmonella typhimurium 14028 assessed as fractional inhibitory concentration index in presence of citronellal by checkerboard broth microdilution assay; format: functional, Salmonella enterica subsp. enterica serovar Typhimurium
[40] = test system: Staphylococcus aureus; assay: Synergistic antimicrobial activity against Staphylococcus aureus 29213 assessed as fractional inhibitory concentration index in presence of thymol by checkerboard broth microdilution assay; format: functional
[41] = Synergistic antimicrobial activity against Salmonella enterica subsp. enterica serovar Pullorum 7913 assessed as fractional inhibitory concentration index in presence of thymol by checkerboard broth microdilution assay; format: functional
[42] = test system: Escherichia coli; assay: Synergistic antimicrobial activity against Escherichia coli 25922 assessed as fractional inhibitory concentration index by checkerboard broth microdilution assay; format: functional
[43] = test system: Escherichia coli; assay: Synergistic antimicrobial activity against Escherichia coli 25922 assessed as fractional inhibitory concentration index in presence of thymol by checkerboard broth microdilution assay; format: functional

CC[C@H](C)[C@H](NC(=O)[C@@H](NC(=O)[C@@H](CCCNC(=N)N)NC(=O)[C@H](C)NC(=O)[C@H](C)NC(=O)[C@@H](N)Cc1cccc2ccccc12)[C@@H](C)CC)C(=O)N[C@@H](CC(C)C)C(=O)N[C@H](CCCNC(=N)N)C(=O)N[C@@H](Cc1c[nH]c2ccccc12)C(=O)N[C@H](CCCNC(=N)N)C(=O)N[C@@H](Cc1ccccc1)C(=O)N[C@@H](CCCNC(=N)N)C(=O)O
fractional inhibitory concentration index (FICI) [1]: 0.25 | fractional inhibitory concentration index (FICI) [2]: 0.375 | MIC [3]: 16 µg/mL | fractional inhibitory concentration index (FICI) [4]: 0.254 | fractional inhibitory concentration index (FICI) [5]: 0.625 | MIC [6]: 1020 µg/mL | fractional inhibitory concentration index (FICI) [7]: 0.25 | FIC [8]: 0.125 | fractional inhibitory concentration index (FICI) [9]: 0.5 | fractional inhibitory concentration index (FICI) [10]: 0.313 | MIC [11]: 8 µg/mL | MIC [12]: 8 µg/mL | fractional inhibitory concentration index (FICI) [13]: 0.516 | fractional inhibitory concentration index (FICI) [14]: 0.5 | MIC [15]: 16 µg/mL | MIC [16]: 1020 µg/mL | fractional inhibitory concentration index (FICI) [17]: 0.75 | fractional inhibitory concentration index (FICI) [18]: 0.313 | fractional inhibitory concentration index (FICI) [19]: 0.25 | MIC [20]: 0.5 µg/mL | fractional inhibitory concentration index (FICI) [21]: 0.141 | FIC [22]: 0.125 | fractional inhibitory concentration index (FICI) [23]: 0.313 | fractional inhibitory concentration index (FICI) [24]: 0.625 | FIC [25]: 0.063 | MIC [26]: 0.5 µg/mL | fractional inhibitory concentration index (FICI) [27]: 0.313 | FIC [28]: 0.25 | fractional inhibitory concentration index (FICI) [29]: 0.5 | MIC [30]: 4 µg/mL | MIC [31]: 256 µg/mL | fractional inhibitory concentration index (FICI) [32]: 0.5 | fractional inhibitory concentration index (FICI) [33]: 0.313 | fractional inhibitory concentration index (FICI) [34]: 0.25 | fractional inhibitory concentration index (FICI) [35]: 0.25 | fractional inhibitory concentration index (FICI) [36]: 0.141 | fractional inhibitory concentration index (FICI) [37]: 0.375 | fractional inhibitory concentration index (FICI) [38]: 0.266 | fractional inhibitory concentration index (FICI) [39]: 0.254 | fractional inhibitory concentration index (FICI) [40]: 0.25 | fractional inhibitory concentration index (FICI) [41]: 0.75 | fractional inhibitory concentration index (FICI) [42]: 0.25 | fractional inhibitory concentration index (FICI) [43]: 0.313

— ChEMBL document CHEMBL6087462, “Cuminaldehyde Potentiates Antiproteolytic Peptide Efficacy via Parallel Pathways of Enhanced Inner Membrane-Damaging Activity and Inhibition of Bacterial Energy Metabolism” (J Med Chem, 2025)
